Test results taken from patent US8530501B2, “Salts and crystalline forms of a factor Xa inhibitor” (Millennium Pharmaceuticals, Inc., priority 2009, dated 2013).

Assays:
[1] = Stability on storage at 40° C./75% RH (XRPD, HPLC purity); format: physicochemical; conditions: for stability with respect to solid form and chemical purity: 40° C./75% RH (elevated humidity and temperature); for crystallinity upon storage (XRPD): 40° C./75% RH, no change in solid form; for Purity post 40° C./75% RH: HPLC purity after seventeen days at 40° C./75% RH; for Purity as isolated: HPLC purity pre 40° C./75% RH; for drop in chemical purity: upon storage at 40° C./75% RH; for physical stability: 6 months of storage at 40° C./75% RH
Description: […] No significant thermal events were seen before degradation began for both the phosphate salt and the 1-hydroxy-2-naphthoate salts.

[2] = Thermodynamic aqueous solubility by HPLC (filtration method); format: physicochemical; conditions: for pH: pH of the solubility suspension; for pH (with aqueous solubility): pH of suspension
Protocol: The aqueous thermodynamic solubility of selected salt forms was measured using the filtration method as described in Example 10.
The suspension was equilibrated at 25° C. for 24 hours then the pH was measured. The suspension was then filtered through a glass fiber C filter into a 96 well plate. The filtrate was then diluted by a factor of 101. Quantitation was by HPLC with reference to a standard solution of approximately 0.1 mg/mL in DMSO. Different volumes of the standard, diluted and undiluted sample solutions were injected. The solubility was calculated using the peak areas determined by integration of the peak found at the same retention time as the principal peak in the standard injection.

[3] = Gravimetric Vapour Sorption (GVS); format: physicochemical; conditions: for physical stability after moisture exposure (XRPD pre- and post-GVS): exposed up to 90% RH at 25° C.; for Hygroscopicity: moisture absorbed by weight: between 0 and 90% relative humidity
Protocol: Sorption isotherms were obtained using a SMS HT-DVS moisture sorption analyser by Surface Measurement Systems Limited, Middlesex, UK, controlled by SMS Analysis Suite software. The sample temperature was maintained at 25° C. by the instrument controls. The humidity was controlled by mixing streams of dry and wet nitrogen, with a total flow rate of 400 mL/min. The relative humidity was measured by a calibrated optical dew point transmitter (dynamic range of 0.5-100% RH), located near the sample. The weight change, (mass relaxation) of the sample as a function of % RH was constantly monitored by the microbalance (accuracy±0.005 mg).
Typically 5-20 mg of sample was placed in a tared mesh stainless steel liner within a stainless steel pan under ambient conditions. The sample was loaded and unloaded at 40% RH and 25° C. (typical room conditions).
A moisture sorption isotherm was performed as outlined in Table 13 (2 scans giving 1 complete cycle). The standard isotherm was performed at 25° C. at 10% RH intervals over a 0.5-90% RH range.
The sample was recovered after completion of the isotherm and re-analysed by XRPD.

[4] = Thermodynamic aqueous solubility by HPLC (ultracentrifugation method); format: physicochemical
Protocol: The physical chemical properties of Forms A and B were determined according to the procedures below and the data are summarized in Table 12.
The mixture was allowed to equilibrate for at least 48 hours at 37° C. under mild agitation. At each 24-48 hour interval, an aliquot was removed and the solution was separated from the solid via ultracentrifugation at >60,000 rpm for 20 min and then analyzed by HPLC for the concentration of the compound in the supernatant. Upon equilibration (concentration plateau is reached), the concentration was reported as solubility. This method is the preferred method in determining solubility as it attains the equilibrium and is measurement of the thermodynamic solubility.

[5] = Pharmacokinetics in monkey after IV and PO administration; format: in vivo, male rhesus monkeys; conditions: PO 5 mg/kg, dose-normalized AUC(0-inf), mean ± SD
Protocol: (§1) For the dog and monkey study, Compound I was also used. An IV and PO dose of Compound I (1.0 and 5.0 mg/kg, respectively) was prepared. The IV dose was formulated similarly to that used in the rat study (50% PEG300 in water). The PO dose was suspended in 0.5% methylcellulose at a concentration of 1.0 mg/mL with a final pH of approximately 3.50.
(§2) A total of six male Sprague-Dawley rats (n=3/dosing group) from Charles River Laboratories (Hollister, Calif.), three male beagle dogs from Marshall BioResources (North Rose, N.Y.) and three male rhesus monkeys were utilized. […]
(§3) All animals were dosed based on individual weights with a PO gavage volume of 5.0 mL/kg and an IV bolus dose volume of 1.0 mL/kg. […] At collection times, urine volume and water consumption was recorded. […]
(§4) Plasma and urine samples were analyzed for Compound I concentration using a liquid chromatography tandem mass spectrometry (LC/MS/MS). […] The peak areas of the m/z 411→250 product ion (Compound I) were measured against those of the m/z 470→342 product ion (N-(2-(5-chloropyridin-2-ylcarbaomoyl)-4-methoxyphenyl)-4-(N,N-dimethylcarbamimidoyl)-2-fluorobenzamide) in positive ion mode. […]
(§5) Sample Compound I concentrations below the lower limit of quantitation (LLQ) were reported as <0.500 ng/mL. […]

[6] = Pharmacokinetics in rat after IV and PO administration; format: in vivo, male Sprague-Dawley rats; conditions: mean ± SD
Protocol: Compound I was used in the rat investigation. An intravenous (IV) and oral (PO) dose of Compound I (1.0 and 10 mg/kg, respectively) was prepared. The IV dose was solubilized in 50% PEG300 to yield a final concentration of 1.0 mg/mL with a final pH of 5.13. The PO dose was suspended in 0.5% methylcellulose at a concentration of 2.0 mg/mL with a final pH of 2.70.
as §2, §3, §4, §5

[7] = Pharmacokinetics in dog after IV and PO administration; format: in vivo, male beagle dogs; conditions: PO 5 mg/kg, dose-normalized AUC(0-inf), mean ± SD
Protocol: as §1, §2, §3, §4, §5

[8] = pKa determination (Sirius GlpKa); format: physicochemical; conditions: 25° C.
Protocol: Data were collected on a Sirius GlpKa instrument by Sirius Analytical Ltd., UK with a D-PAS attachment. Measurements were made at 25° C. in aqueous solution by UV and in methanol water mixtures by potentiometry. The titration media was ionic-strength adjusted (ISA) with 0.15 M KCl (aq). The values found in the methanol water mixtures were corrected to 0% co-solvent via a Yasuda-Shedlovsky extrapolation. The data were refined using Refinement Pro software v1.0. Prediction of pKa values was made using ACD pKa prediction software v9.

[9] = Log P and Log D determination (potentiometric titration, octanol:ISA water); format: physicochemical; conditions: octanol/ionic-strength adjusted (ISA) water
Description: Data were collected by potentiometric titration on a Sirius GlpKa instrument using three ratios of octanol:ionic-strength adjusted (ISA) water to generate Log P, Log Pion, and Log D values. The data were refined using Refinement Pro software v1.0. Prediction of Log P values was made using ACD v9 and Syracuse KOWWIN™ v1.67 software by Syracuse Research Corp., Syracuse, N.Y., USA.

[10] = listed as 1-Hydroxy-2-naphthoate 2-5
[11] = Table 8, filtration method, water, 25° C., 24 hours

stability with respect to solid form and chemical purity [1] | crystallinity upon storage (XRPD) [1] | Aqueous solubility [2, 11] [µg/mL] | pH ([2]; Table 8) | hygroscopicity (GVS) [3] | pH of saturated solution [4] | Aqueous Solubility (Ultracentrifugation Method) ([4]; in simulated gastric fluid) | Aqueous Solubility (Ultracentrifugation Method) ([4]; in simulated intestinal fluid) [mg/mL in simulated] | Aqueous Solubility (Ultracentrifugation Method) ([4]; in water) [mg/mL in water] | Hygroscopicity: moisture absorbed by weight [3] | physical stability after moisture exposure (XRPD pre- and post-GVS) [3] | physical stability [1] | SMILES | other results
stable | loss of crystallinity | 50 | 6.0 | Neither salts showed hygroscopicity | – | – | – | – | – | – | – | O=C(NCc1cn(-c2ccc(-n3ccccc3=O)cc2)cn1)c1ccc(Cl)s1 [1-Hydroxy-2-naphthoate Form 1] | Purity post 40° C./75% RH [1, 10]: 97.7%; Purity as isolated [1, 10]: 98.2%; drop in chemical purity ([1]; listed as 1-hydroxy-2-naphthoate salt): 0.5%; pH (with aqueous solubility) ([2]; salts formed under reflux conditions, listed as 1-hydroxy-2-napthoic acid MeCN): pH = 5.99; Aqueous solubility ([2]; salts formed under reflux conditions, water, listed as 1-hydroxy-2-napthoic acid MeCN): 44 µg/mL; pH (with aqueous solubility) ([2]; salts from 100-mg maturation experiments, listed as 2-5): pH = 6.50; Aqueous solubility ([2]; salts from 100-mg maturation experiments, water, listed as 2-5): 68 µg/mL; physical stability after moisture exposure (XRPD pre- and post-GVS) ([3]; listed as 1-hydroxy-2-naphthoate salt of Compound I): substantially stable; hysteresis in GVS ([3]; listed as 1-hydroxy-2-naphthoate salt Form 1): showed any hysteresis
stable | – | 4100 | 2.0 | Neither salts showed hygroscopicity | – | – | – | – | – | – | – | O=C(NCc1cn(-c2ccc(-n3ccccc3=O)cc2)cn1)c1ccc(Cl)s1 [Phosphate Form 2] | pH (with aqueous solubility) ([2]; salts formed under reflux conditions, listed as Phosphoric acid MeCN): pH = 2.00; Aqueous solubility ([2]; salts formed under reflux conditions, water, listed as Phosphoric acid MeCN): 4100 µg/mL
– | – | – | – | – | 2.7 | 12 mg/mL in simulated gastric | 0.06 | 8.5 | Absorbs approximately 2.5% | good physical stability | – | O=C(NCc1cn(-c2ccc(-n3ccccc3=O)cc2)cn1)c1ccc(Cl)s1 [Mesylate Form B] | –
stable | loss of crystallinity | 6900 | 2.2 | – | – | – | – | – | – | – | – | O=C(NCc1cn(-c2ccc(-n3ccccc3=O)cc2)cn1)c1ccc(Cl)s1 [Phosphate Form 3] | Purity post 40° C./75% RH ([1]; listed as Phosphate 2-4): 97.3%; Purity as isolated ([1]; listed as Phosphate 2-4): 98.0%; drop in chemical purity [1]: 0.7%; pH (with aqueous solubility) ([2]; salts from 100-mg maturation experiments, listed as 2-4): pH = 2.18; Aqueous solubility ([2]; salts from 100-mg maturation experiments, water, listed as 2-4): 6900 µg/mL
– | – | – | – | – | – | – | – | – | – | – | physically stable | O=C(NCc1cn(-c2ccc(-n3ccccc3=O)cc2)cn1)c1ccc(Cl)s1 [Compound I, 5-chloro-N-((1-(4-(2-oxopyridin-1(2H)-yl)phenyl)-1H-imidazol-4-yl)methyl)thiophene-2-carboxamide] | Aqueous solubility ([2]; Table 8, filtration method, water, 25° C., 24 hours, listed as Free base): 0.8 µg/mL; pH ([2]; Table 8, listed as Free base): 7.8; AUC/D [5]: 8430 ± 3449 kg·h/mL; Dose excreted unchanged in urine ([6]; IV 1 mg/kg): 0.248 ± 0.019%; AUC/D ([6]; PO 10 mg/kg, dose-normalized AUC(0-inf)): 6859 ± 1249 kg·h/mL; AUC/D [7]: 1095 ± 295 kg·h/mL
– | – | 5100 | 1.8 | – | 3.3 | 1.3 mg/mL in simulated gastric | 0.02 | 2.0 | Absorbs approximately 2.5% | good physical stability | physically stable | O=C(NCc1cn(-c2ccc(-n3ccccc3=O)cc2)cn1)c1ccc(Cl)s1 [Mesylate Form A] | pKa [8]: 4.46; solubility at 24 h ([2]; water, 25 °C, pH 1.8, water, thermodynamic from solid, at pH 1.8): 5100 µg/mL; GVS uptake ([3]; at 90% RH): 2.8 wt %; hysteresis in GVS ([3]; listed as mesylate salt): no hysteresis evident; logP [9]: 2.25; logD ([9]; pH 7.4): 2.85
